# Biological target: HIV-1 integrase (Human immunodeficiency virus type 1 group M subtype B, UniProt P04585)
# Assay: HIV-1 integrase inhibition assay (microtiter plate, substrate DNA/target DNA, OD 405 nm)
# Format: biochemical
# Method: The DNA solutions were annealed with each complement by slowly cooling after heating.
# After coating each well of microtiter plates (obtained from NUNC) with 50 μl of the above solution at 4° C. overnight, each well was washed twice with PBS (composition: […], 0.27 mM KCl, 0.43 mM Na2HPO4, 0.14 mM KH2PO4) and blocked with 300 μl of 1% skim milk in PBS for 30 min. Additionally, each well was washed twice with PBS and added 50 μl of substrate DNA solution (2 pmol/μl). The microtiter plates were kept at room temperature for 30 min. Then, each well was washed twice with PBS and once with H2O.
# The microtiter plates were incubated at 30° C. for 1 hour. […] Then, each well was washed twice with 0.05% Tween20 in PBS and once with PBS. […] The optical density (OD) at 405 nm of each well was measured and the percent inhibition was determined by the following expression.
row,SMILES,IC50 [µM]
1,"O=C(O)C(O)=CC(=O)c1cn(S(=O)(=O)c2ccccc2)c2ccc(Cl)cc12 [Example 23(2), 4-(1-Benzenesulfonyl-5-chloroindol-3-yl)-2-hydroxy-4-oxo-2butenoic acid]",0.32
2,O=C(C=C(O)c1nc[nH]n1)c1c[nH]c2ccc(Cl)cc12 [Example 71],5.16
3,O=C(C=C(O)c1nn[nH]n1)c1cn(S(=O)(=O)c2cccs2)c2ccc(Cl)cc12 [Example 80],7.57
4,O=C(C=C(O)c1nn[nH]n1)c1cn(Cc2ccccc2)c2ccc(Cl)cc12 [Example 81],9.48

# Test system: not given
# Assay: not given
row,SMILES,melting point
1,O=C(O)c1cccc(C(O)=CC(=O)c2cn(S(=O)(=O)c3ccccc3)c3ccc(Cl)cc23)c1,245 to 255 °C (dec.)
2,O=C(O)c1cccc(C(O)=CC(=O)c2c[nH]c3ccc(Cl)cc23)c1,> 270 °C (dec.)
3,O=C(/C=C(\O)c1nn[nH]n1)c1c([S+]([O-])c2cc(Cl)cc(Cl)c2)[nH]c2ccc(Cl)cc12 (stereo not shown),200 to 204 °C (dec.)
4,COC(=O)/C(O)=C/C(=O)c1c(Cc2ccc(F)cc2)[nH]c2ccc(Cl)cc12,235 to 238 °C
5,O=C(/C=C(\O)c1nn[nH]n1)c1c(CCCc2ccc(F)cc2)[nH]c2ccc(Cl)cc12,181 to 182 °C (dec.)
6,COc1ccccc1Cc1[nH]c2ccc(Cl)cc2c1C(=O)/C=C(\O)c1nn[nH]n1,245 °C (dec.)
7,O=C(/C=C(\O)c1ncc[nH]1)c1c[nH]c2ccc(Cl)cc12,272 to 276 °C
8,O=C(/C=C(\O)c1nccs1)c1c[nH]c2ccc(Cl)cc12,226 to 227 °C
9,COc1ccccc1Cn1cc(C(=O)/C=C(\O)c2nn[nH]n2)c2cc(Cl)ccc21,256 °C (dec.)
10,O=C(/C=C(\O)c1nn[nH]n1)c1cn(Cc2ccccc2)c2c(Cl)cccc12,252 °C (dec.)
11,O=C(/C=C(\O)c1nc[nH]n1)c1cn(S(=O)(=O)c2ccccc2)c2ccc(Br)cc12,290 to 295 °C (dec.)
12,O=C(/C=C(\O)c1nc[nH]n1)c1cn(S(=O)(=O)c2ccccc2)c2cc(Cl)ccc12,265 to 270 °C
13,O=C(/C=C(\O)c1nc[nH]n1)c1cn(S(=O)(=O)c2ccc(F)cc2)c2ccc(Br)cc12,266 to 270 °C
14,O=C(/C=C(\O)c1nc[nH]n1)c1cn(S(=O)(=O)c2ccc(F)cc2)c2cc(Cl)ccc12,293 to 298 °C (dec.)
15,O=C(/C=C(\O)c1nc[nH]n1)c1cn(S(=O)(=O)c2cc(Cl)ccc2Cl)c2ccc(Cl)cc12,301 to 302 °C
16,O=C(/C=C(\O)c1nc[nH]n1)c1cn(Cc2ccccc2)c2ccc(Cl)cc12,264 to 265 °C
17,O=C(/C=C(\O)c1nc[nH]n1)c1cn(Cc2ccc(F)cc2)c2ccc(Br)cc12,265 to 268 °C
18,O=C(/C=C(\O)c1nc[nH]n1)c1cn(Cc2ccc(F)cc2)c2cc(Cl)ccc12,260 to 263 °C
19,O=C(/C=C(\O)c1nccs1)c1cn(S(=O)(=O)c2ccccc2)c2ccc(Cl)cc12,191 to 194 °C
20,O=C(O)/C(O)=C/C(=O)c1cn(Cc2ccc(C(=O)O)cc2)c2ccc(Cl)cc12,245 °C (dec.)
21,CCOC(=O)C(=CC(=O)c1cn(Cc2ccccc2)c2ccc(Cl)cc12)NC,131 to 132 °C
22,CNC(=CC(=O)c1cn(Cc2ccccc2)c2ccc(Cl)cc12)C(=O)O,205 to 210 °C (dec.)
23,CCOCCNC(=CC(=O)c1cn(Cc2ccccc2)c2ccc(Cl)cc12)C(=O)OCC,73 to 74 °C
24,CCOCCNC(=CC(=O)c1cn(Cc2ccccc2)c2ccc(Cl)cc12)C(=O)O,184 to 186 °C (dec.)
25,CCOC(=O)C(N)=CC(=O)c1c[nH]c2ccccc12,200 to 205 °C
26,O=C(OC(c1ccccc1)c1ccccc1)C(O)=CC(=O)c1cn(C(=O)c2ccc(F)cc2)c2ccc(Cl)cc12,198 to 200 °C
27,O=C(O)C(O)=CC(=O)c1cn(C(=O)c2ccc(F)cc2)c2ccc(Cl)cc12,213 to 218 °C
28,O=C(C=C(O)c1nc[nH]n1)c1c[nH]c2ccc(Cl)cc12 [Example 71],277 to 279 °C
29,O=C(C=C(O)c1nn[nH]n1)c1cn(S(=O)(=O)c2cccs2)c2ccc(Cl)cc12 [Example 80],243 °C
30,O=C(C=C(O)c1nn[nH]n1)c1cn(Cc2ccccc2)c2ccc(Cl)cc12 [Example 81],> 240 °C

# Source: patent publication US6716605B2, “Indole derivatives having an antiviral activity” (Shionogi & Co., Ltd., priority 1998, dated 2004)
